This note sets out measurements from patent publication US9512176B2, “Age inhibitors” (Centre National de la Recherche Scientifique, priority 2005, dated 2016).

Data set [1] has as its system lysozyme. Briefly: SDS PAGE electrophoresis of lysozyme incubated with methylglyoxal and inhibitor. The format is biochemical. The following applies: lysozyme 10 mg/ml, methylglyoxal 10 mM, inhibitor equimolar, 37° C., 48 hours. Here is the method: (§1) Ribonuclease A and lysozyme (10 mg/ml) are incubated in the presence of methylglyoxal (10 mM) or in the presence of methylglyoxal and one of the inhibitors according to the present invention in an equimolar quantity at 37° C. After 48 hours of incubation, the proteins are analyzed by polyacrylamide gel electrophoresis (8%-16% SDS PAGE gel).

Data set [2] has as its system ribonuclease A. As to the kind of experiment: Enzymatic activity of ribonuclease A after treatment with methylglyoxal and inhibitors (methylene blue RNA staining). The following applies: ribonuclease A treated with methylglyoxal (MG) + inhibitor in equimolar quantity, 37° C.; control RNase 100, RNase + methylglyoxal 10.11%. The format is biochemical. Here is the method:
as §1
The enzymatic activity of ribonuclease A after treatment with methylglyoxal and the various inhibitors according to the present invention is measured using the methylene blue RNA staining technique of Greiner-Stöffele et al. (Anal. Biochem. (1996) 240, 24).

Data set [3] has as its system Human insulin. Briefly: Modification of insulin by methylglyoxal (HPLC). The following applies: insulin 0.034 mM, methylglyoxal 3.4 mM, scavenger 4.08 mM, pH 7.45, 37° C. Type of data set: biochemical. Here is the method:
FIG. 1 presents the comparative effects of dicarbonyl scavengers in the form of dihydrochloride according to the present invention and the comparison with DAPA on the modification of insulin (Ins) by methylglyoxal (MG). The percentage of insulin is indicated following incubation with methylglyoxal in the presence or absence of dicarbonyl scavengers. Insulin (0.034 mM) is incubated in vitro in a 10 mM phosphate buffer, pH 7.45 (containing 0.1 M NaCl) with methylglyoxal (3.4 mM) in the presence of dicarbonyl scavengers (4.08 mM) for 21 hours at 37° C. Insulin concentration is measured by HPLC (same conditions as in FIG. 3).
FIGS. 3 to 8 present the results obtained by HPLC for two compounds according to the present invention, L-DAPA-L-Leu (example 1) and L-DAPA-L-Val (example 23), on insulin modifications induced by methylglyoxal. It can be observed that these modifications are prevented. The HPLC conditions are as follows: C-18, Symmetry 300 (4.6×250 mm) column, injection volume 100 μl of reaction mixture; flow 1 ml/min; temperature 40° C.; solvent A: H2O+0.1% TFA; solvent B: 60/40 CH3CN/H2O+0.1% TFA; linear gradient of 50% B to 55% B in 15 minutes; detection: UV at 215 nm: PDA (chromatograms extracted at 220 nm).
Human insulin (Ins) is incubated with methylglyoxal (MG) under physiological conditions. After 24 hours, the insulin is completely modified, as illustrated in FIG. 1 (Ins+MG).
On the other hand, insulin is incubated with methylglyoxal in the presence of an equimolar quantity of the AGE inhibitors according to the present invention under physiological conditions.

Data set [4] has as its system RNase A. Briefly: RNase A modifications induced by methylglyoxal (HPLC). To be noted: RNase A 0.08 mM, methylglyoxal 32 mM, compound 38 mM, 21 hours at 37° C. Type of data set: biochemical. As to the method:
FIGS. 11 to 13 present the results obtained by HPLC for three compounds according to the present invention, L-DAPA-L-Ile (example 18), L-DAPA-L-Val (example 23) and L-DAPA-L-Leu (example 1), on RNase A modifications induced by methylglyoxal. HPLC conditions are as follows: C-18, Symmetry 300 (4.6×250 mm) column, injection volume 100 μl of reaction mixture diluted to 1/10; flow 1 ml/min; temperature 40° C.; solvent A: H2O+0.1% TFA; solvent B: 60/40 CH3CN/H2O+0.1% TFA; linear gradient of 20% B to 80% B in 20 minutes; detection: UV at 215 nm: PDA (chromatograms extracted at 215 nm).

The subject of data set [5] is ribonuclease A. As to the kind of experiment: SDS PAGE electrophoresis of ribonuclease A incubated with methylglyoxal and inhibitor. The format is biochemical. To be noted: ribonuclease A 10 mg/ml, methylglyoxal 10 mM, inhibitor equimolar, 37° C., 48 hours. Here is the method: as §1
The AGE inhibitors according to the present invention, namely L-DAPA-L-Leu (example 1) and L-DAPA-L-Ile (example 18), or AG (10 mM) are incubated with MG and ribonuclease A for […] at 37° C.

Data set [6] has as its system seven strains of Salmonella (six mixed strains, strain TA98). Briefly: Ames test with and without human liver S9 fractions. Type of data set: cell-based. Set-up: key to Six mixed strains / Strain TA98: −: non-mutagenic; +: mutagenic. The following applies: for Six mixed strains / Strain TA98: mixture with methylglyoxal, 10/1/0.1 μM. As to the method:
An Ames test was performed with L-DAPA-L-Leu (example 1) and L-DAPA-L-Val (example 23) alone and in combination with methylglyoxal on human liver S9 fractions and on seven strains of Salmonella.
The concentrations used in the Ames test were as follows: • L-DAPA-L-Leu alone or L-DAPA-L-Val alone: 10 μM, 1 μM and 0.1 μM. • L-DAPA-L-Leu/methylglyoxal mixture or L-DAPA-L-Val/methylglyoxal mixture: 10 μM, 1 μM and 0.1 μM. • Methylglyoxal: 10 μM.

Data set [7] has as its system somatostatin-14. As to the kind of experiment: Somatostatin-14 modifications induced by methylglyoxal (HPLC). Type of data set: biochemical. To be noted: somatostatin-14 0.03 mm, methylglyoxal 3.6 mM, compound 4.3 mM, 24 hours at 37° C. As to the method: FIGS. 9 and 10 present the results obtained by HPLC for two compounds according to the present invention, L-DAPA-L-Leu (example 1) and L-DAPA-L-Val (example 23), on somatostatin-14 modifications induced by methylglyoxal. HPLC conditions are as follows: C-18, Symmetry 300 (4.6×250 mm) column, injection volume 100 μl of reaction mixture; flow 1 ml/min; solvent A: H2O+0.1% TFA; solvent B: 80/20 CH3CN/H2O+0.1% TFA; linear gradient: from 20% B to 60% B in 15 minutes and isocratic from 60% B for 10 minutes; ambient temperature; detection: PDA (chromatograms extracted at 215 nm).
In these figures, (a) represents the results of somatostatin-14 alone; (b) represents the results of somatostatin-14+methylglyoxal; (c) represents the results of somatostatin-14+methylglyoxal+L-DAPA-L-Val (example 23) and (d) represents the results of somatostatin-14+methylglyoxal+L-DAPA-L-Leu (example 1).

SMILES strings stand for the structures. Non-standard residues stand in square brackets, D forms with d. Residues, ends and D or L forms follow the SMILES beside them. Dap = NC[C@H](N)C(=O)O

In the case of `CC(C)C[C@H](NC(=O)[C@@H](N)CN)C(=O)O` [example 1, L-DAPA-L-Leu.2HCl] (H-[Dap]-Leu-OH), the “protection from structural modifications (dimer form) caused by methylglyoxal” value in data set [1] and in data set [5] was “provides protection” in each case. In addition, in data set [2], the “Enzymatic activity (%)” value was determined as 93.91%. Besides, in data set [3], the “modification of insulin by methylglyoxal” value is listed as “prevented”. In addition, in data set [4], the “RNase A modifications induced by methylglyoxal” value is “prevent the modifications to RNase A”. In addition, the Six mixed strains result in data set [6] (Human S9: No) and in data set [6] (Human S9: Yes (metabolites)) was “−” each time. Moreover, the “Strain TA98” value in data set [6] (Human S9: No) and in data set [6] (Human S9: Yes (metabolites)) was “−” in each case. For the same compound, in data set [6] (alone or in combination with methylglyoxal, TA98, mixed strains, human liver S9 fractions), the “mutagenicity” value was “neither substance (L-DAPA-L-Leu or L-DAPA-L-Val) was mutagenic”. In addition, the “somatostatin-14 modifications induced by methylglyoxal” value in data set [7] is recorded as “prevent the modifications induced by methylglyoxal”.
